Reference: ChEMBL document CHEMBL1144372, “Novel 2-amino-4-oxo-5-arylthio-substituted-pyrrolo[2,3-d]pyrimidines as nonclassical antifolate inhibitors of thymidylate synthase” (Bioorg Med Chem Lett, 2005)

What was measured:
Thymidylate synthase [1] = molecular target: Thymidylate synthase (Escherichia coli, UniProt C3SWJ7); experiment: Inhibitory concentration against Escherichia coli thymidylate synthase
HT-29 = experiment: Growth inhibitory concentration against human HT-29 cells; format: functional
Thymidylate synthase [2] = molecular target: Thymidylate synthase (Homo sapiens, UniProt P04818)
Sequence of Thymidylate synthase (Homo sapiens, UniProt P04818) (P04818 whole entry): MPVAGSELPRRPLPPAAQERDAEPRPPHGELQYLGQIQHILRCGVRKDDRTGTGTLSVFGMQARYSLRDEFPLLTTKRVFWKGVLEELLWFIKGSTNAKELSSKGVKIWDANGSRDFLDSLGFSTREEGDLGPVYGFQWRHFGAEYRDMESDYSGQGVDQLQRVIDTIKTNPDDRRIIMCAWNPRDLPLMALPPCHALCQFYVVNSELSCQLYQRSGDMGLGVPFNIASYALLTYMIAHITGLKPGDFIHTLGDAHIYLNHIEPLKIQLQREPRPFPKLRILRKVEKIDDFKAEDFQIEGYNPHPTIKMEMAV
Description: Inhibitory concentration against human thymidylate synthase

[3] = Inhibitory concentration against Escherichia coli dihydrofolate reductase
MOLT-4 = experiment: Growth inhibitory concentration against human MOLT-4 cells; format: functional
MDA-MB-231 = experiment: Growth inhibitory concentration against human MDA-MB-231 cells; format: functional
Dihydrofolate reductase = molecular target: T1, Dihydrofolate reductase (Homo sapiens, UniProt P00374); experiment: Inhibitory concentration against human dihydrofolate reductase
T1 sequence (P00374 whole entry): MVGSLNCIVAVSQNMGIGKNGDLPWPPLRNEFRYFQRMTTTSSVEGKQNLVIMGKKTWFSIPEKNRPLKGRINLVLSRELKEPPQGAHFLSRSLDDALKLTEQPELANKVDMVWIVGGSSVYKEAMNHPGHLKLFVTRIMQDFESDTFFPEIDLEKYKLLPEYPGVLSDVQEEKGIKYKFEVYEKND

Sequence of Thymidylate synthase (Escherichia coli, UniProt C3SWJ7) (C3SWJ7 whole entry): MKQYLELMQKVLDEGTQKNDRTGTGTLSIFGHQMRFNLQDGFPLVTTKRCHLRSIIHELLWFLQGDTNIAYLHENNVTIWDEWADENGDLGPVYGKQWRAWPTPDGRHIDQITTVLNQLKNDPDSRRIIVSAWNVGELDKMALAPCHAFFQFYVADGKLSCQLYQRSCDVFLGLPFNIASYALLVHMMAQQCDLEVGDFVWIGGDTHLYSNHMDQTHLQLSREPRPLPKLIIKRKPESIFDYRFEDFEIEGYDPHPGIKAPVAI

For `Cc1[nH]c2nc(N)nc(O)c2c1Sc1ccc(Br)c([N+](=O)[O-])c1`, the IC50 (Thymidylate synthase [1]) was 11 µM, the GI50 (HT-29) was 6.18 µM and the IC50 (Thymidylate synthase [2]) was 0.21 µM. The IC50 [3] was over 25 µM, the GI50 (MOLT-4) was 4.23 µM and the GI50 (MDA-MB-231) was 3.28 µM. It also gave a GI50 (MDA-MB-231; Homo sapiens, MDA-MB-231) of 6.55 µM.
With `Cc1[nH]c2nc(N)nc(O)c2c1Sc1ccc(OC(F)(F)F)cc1` the IC50 (Thymidylate synthase [1]) was over 23 µM, the IC50 (Thymidylate synthase [2]) was 2.3 µM and the IC50 [3] was over 28 µM.
`Cc1[nH]c2nc(N)nc(O)c2c1Sc1ccc(Br)cc1` gave an IC50 (Thymidylate synthase [2]) of 0.46 µM, an IC50 (Dihydrofolate reductase) of over 28 µM and an IC50 [3] of 2.8 µM.
With `Cc1[nH]c2nc(N)nc(O)c2c1Sc1ccc(C#N)cc1` the IC50 (Thymidylate synthase [2]) was 0.28 µM, the IC50 (Dihydrofolate reductase) was over 34 µM and the IC50 [3] was over 34 µM.
With `Cc1[nH]c2nc(N)nc(O)c2c1Sc1cc(C(F)(F)F)cc(C(F)(F)F)c1` the IC50 (Thymidylate synthase [2]) was over 21 µM, the IC50 (Dihydrofolate reductase) was over 25 µM and the IC50 [3] was over 25 µM.
Compound `Cc1[nH]c2nc(N)nc(O)c2c1Sc1cc(Cl)cc(Cl)c1` has an IC50 (Thymidylate synthase [1]) of over 24 µM, an IC50 (Thymidylate synthase [2]) of 2.4 µM and an IC50 [3] of over 29 µM.
Work on `Cc1[nH]c2nc(N)nc(O)c2c1Sc1cc(F)cc(F)c1` yielded an IC50 (Thymidylate synthase [2]) of 2.7 µM, an IC50 (Dihydrofolate reductase) of over 32 µM and an IC50 [3] of over 32 µM.
Work on `Cc1[nH]c2nc(N)nc(O)c2c1Sc1ccc(C(F)(F)F)cc1` yielded an IC50 (Thymidylate synthase [2]) of 0.8 µM, an IC50 (Dihydrofolate reductase) of over 29 µM and an IC50 [3] of over 29 µM.
For `Cc1[nH]c2nc(N)nc(O)c2c1Sc1cccc(Br)c1`, the IC50 (Thymidylate synthase [1]) was over 24 µM, the IC50 (Thymidylate synthase [2]) was 1.2 µM and the IC50 [3] was over 28 µM.
In the case of `Cc1[nH]c2nc(N)nc(O)c2c1Sc1ccc(F)c(Cl)c1`, the IC50 (Thymidylate synthase [2]) is reported as 0.83 µM, the IC50 (Dihydrofolate reductase) is reported as over 31 µM and the IC50 [3] is reported as over 31 µM.
Compound `Cc1[nH]c2nc(N)nc(O)c2c1Sc1ccc(F)cc1` has an IC50 (Thymidylate synthase [2]) of 1.4 µM, an IC50 (Dihydrofolate reductase) of over 32 µM and an IC50 [3] of over 33 µM.
Work on `Cc1[nH]c2nc(N)nc(O)c2c1Sc1cccc(Cl)c1` yielded an IC50 (Thymidylate synthase [2]) of 1.4 µM, an IC50 (Dihydrofolate reductase) of over 32 µM and an IC50 [3] of over 33 µM.
For `Cc1[nH]c2nc(N)nc(O)c2c1Sc1cc([N+](=O)[O-])cc([N+](=O)[O-])c1`, the IC50 (Thymidylate synthase [1]) was over 23 µM, the IC50 (Thymidylate synthase [2]) was 23 µM and the IC50 [3] was over 27 µM.
With `Cc1[nH]c2nc(N)nc(O)c2c1Sc1ccc(Cl)c([N+](=O)[O-])c1` the IC50 (Thymidylate synthase [1]) was 23 µM, the IC50 (Thymidylate synthase [2]) was 0.46 µM and the IC50 [3] was over 28 µM.
Work on `Cc1[nH]c2nc(N)nc(O)c2c1Sc1ccc(F)c(F)c1` yielded an IC50 (Thymidylate synthase [2]) of 0.9 µM, an IC50 (Dihydrofolate reductase) of over 32 µM and an IC50 [3] of over 32 µM.
In the case of `Cc1[nH]c2nc(N)nc(O)c2c1Sc1ccc(Br)c(Cl)c1`, the IC50 (Thymidylate synthase [2]) is reported as 0.22 µM, the IC50 (Dihydrofolate reductase) is reported as over 26 µM and the IC50 [3] is reported as over 26 µM.
`Cc1[nH]c2nc(N)nc(O)c2c1Sc1cccc(F)c1` showed an IC50 (Thymidylate synthase [1]) of over 28 µM, an IC50 (Thymidylate synthase [2]) of 2.8 µM and an IC50 [3] of over 33 µM.
